Data on one substance can be found in publication PMC2912373, “Low-Density Lipoprotein Receptor-Related Protein 1 (LRP1) Mediates Neuronal Aβ42 Uptake and Lysosomal Trafficking” (PLoS ONE, 2010).

For this assay, the system named is N2a-mLRP4-Tless cells. The assay can be described thus: FAM-Aβ42 uptake in LRP1 endocytosis-deficient cells, FACS. The assay is classed as cell-based, mouse. Conditions: 500 nM, 48 h, pronase-treated and untreated cells. The source says:
To determine whether the endocytic function of LRP1 is required for Aβ42 internalization and accumulation, we first analyzed the effect of clathrin knockdown on the uptake of FAM-Aβ42 in N2a-mLRP4 cells. We decreased the expression of clathrin heavy chain by lentiviral-mediated delivery of small hairpin interfering RNA (shRNA) in N2a-mLRP4 cells and analyzed cell surface levels of mLRP4 by FACS. Lentiviral-mediated knockdown of clathrin heavy chain substantially decreases the protein levels of clathrin heavy chain and evokes a twofold-increase in the levels of cell surface mLRP4 in N2a cells (Fig. 4A), consistent with an impairment of clathrin-mediated endocytosis of this LRP1 minireceptor. […] As a control for specificity, we analyzed the uptake of a FAM-Aβ42 peptide that contained the same amino acid composition but in a scrambled sequence. […] To further confirm this, we specifically targeted the endocytic function of mLRP4 and analyzed the internalization of FAM-Aβ42 in LRP1 endocytosis-deficient cells. […]
Figure 4 LRP1 endocytosis is required for Aβ42 uptake and accumulation in N2a cells. […] The levels of cell surface and total pools of mLRP4 were determined by flow cytometric analyses with anti-HA antibody in non-permeabilized and saponin-treated cells, respectively. The surface-to-total ratio were calculated and plotted as fold-change to control-infected cells. […]

Regarding “FAM-Aβ42: FAM-Aβ42 peptide (23526) from Anaspec; amyloid-β 42 with carboxyfluorescein at the N-terminal region”, the “FAM-Aβ42 uptake in N2a-mLRP4-Tless compared to N2a-pcDNA3 cells” value was “similar”.
